Drawing on patent publication US9108921B2, “Therapeutic compounds and compositions” (AGIOS PHARMACEUTICALS, INC, priority 2014, dated 2015), this text covers AC50 for 24 compounds.

One test addresses PKR R510Q (Homo sapiens, UniProt P30613, R510Q). Put plainly: PKR Mutant Assay, AC50 against PKR R510Q. The format is biochemical. The conditions noted are these: mutant PKR R510Q enzyme. Summed up: (§1)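 Human PKR mutant enzyme (80-400 ng/well) was preincubated 60 min at room temperature with compound (11-point, 3-fold series from 100 μM top, 1% DMSO) in 100 mM KCl, 50 mM Tris pH 7.5, 5 mM MgCl2, 1 mM DTT, 0.03% BSA. ADP (0.22-1.65 mM) started the reaction, with PEP 0.1-0.5 mM.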

Another test concerns the target PKR R532W (Homo sapiens, UniProt P30613, R532W). Put plainly: PKR Mutant Assay, AC50 against PKR R532W. The conditions noted are these: mutant PKR R532W enzyme. The format is biochemical. Summed up:
as §1

Test [1] concerns the target T1, PKR WT (Homo sapiens, UniProt P30613). In words: PKR WT enzymatic AC50 assay. Type of test: biochemical. The settings on record: wild type PKR. A digest of the protocol:
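Human PKR (WT or mutant, 80-400 ng/well) in 50 mM Tris pH 7.5, 100 mM KCl, 5 mM MgCl2, 1 mM DTT, 0.03% BSA with PEP 0.1-0.5 mM, NADH 180 uM and LDH, preincubated 60 min at room temperature with compound (11-point 3-fold series from 100 μM final, 1% DMSO). ADP 0.22-1.65 mM started reaction; A340 followed.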

Test [2] concerns the target T1, PKR WT. In words: PKR WT cell based AC50 assay. The conditions noted are these: wild type PKR.

Chain of PKR R510Q (P30613 whole entry R510Q): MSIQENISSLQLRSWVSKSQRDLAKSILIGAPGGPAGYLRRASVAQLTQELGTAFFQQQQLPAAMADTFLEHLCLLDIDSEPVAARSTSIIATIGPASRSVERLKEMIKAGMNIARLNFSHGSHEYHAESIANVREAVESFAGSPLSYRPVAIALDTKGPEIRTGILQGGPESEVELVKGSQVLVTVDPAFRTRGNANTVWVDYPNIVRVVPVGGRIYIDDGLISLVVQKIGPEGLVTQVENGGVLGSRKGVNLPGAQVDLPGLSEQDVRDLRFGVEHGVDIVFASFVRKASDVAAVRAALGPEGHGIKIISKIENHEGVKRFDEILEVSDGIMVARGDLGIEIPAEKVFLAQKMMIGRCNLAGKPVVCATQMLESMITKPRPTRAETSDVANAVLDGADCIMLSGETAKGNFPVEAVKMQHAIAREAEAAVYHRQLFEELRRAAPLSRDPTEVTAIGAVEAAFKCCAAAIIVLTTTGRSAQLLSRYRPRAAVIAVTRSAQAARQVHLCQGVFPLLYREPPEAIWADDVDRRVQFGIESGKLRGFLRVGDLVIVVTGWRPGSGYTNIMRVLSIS
T1 sequence (P30613 whole entry): as the sequence (P30613 whole entry R510Q) above, with Q510R counted along it
Chain of PKR R532W (P30613 whole entry R532W): as the sequence (P30613 whole entry R510Q) above, with Q510R, R532W counted along it

As to `O=C(c1ccc(NS(=O)(=O)c2cccc3cccnc23)cc1)N1CCC(O)(c2ncccc2F)CC1` [Compound 148, N-(4-(4-(3-fluoropyridin-2-yl)-4-hydroxypiperidine-1-carbonyl)phenyl)quinoline-8-sulfonamide], the AC50 on PKR R510Q is 101 to 1000 nM; at PKR R532W it was under 100 nM; at PKR WT [1], under 100 nM; on PKR WT [2], 101 to 1000 nM.

In the case of `Cc1ncccc1C1(O)CCN(C(=O)c2ccc(NS(=O)(=O)c3cccc4cccnc34)cc2)CC1` [Compound 147, N-(4-(4-hydroxy-4-(2-methylpyridin-3-yl)piperidine-1-carbonyl)phenyl)quinoline-8-sulfonamide], the AC50 on PKR R510Q was 101 to 1000 nM; at PKR R532W, under 100 nM; on PKR WT [1] it was under 100 nM; at PKR WT [2], under 100 nM.

Consider `CC(C)(O)CC1(O)CCN(C(=O)c2ccc(NS(=O)(=O)c3cccc4cccnc34)cc2)CC1` [Compound 241, N-(4-(4-hydroxy-4-(2-hydroxy-2-methylpropyl)piperidine-1-carbonyl)phenyl)quinoline-8-sulfonamide], for which the AC50 on PKR R510Q was in the range of 1010 to 10000 nM; on PKR R532W, 101 to 1000 nM; on PKR WT [1], 101 to 1000 nM; at PKR WT [2], 101 to 1000 nM.

For the compound `O=C(c1ccc(NS(=O)(=O)c2cccc3nccnc23)cc1)N1CCC(O)(c2ccccc2)CC1` [Compound 243, N-(4-(4-hydroxy-4-phenylpiperidine-1-carbonyl)phenyl)quinoxaline-5-sulfonamide], the AC50 was 1010 to 10000 nM at PKR R510Q, 101 to 1000 nM on PKR R532W, 101 to 1000 nM at PKR WT [1] and under 100 nM at PKR WT [2].

As to `CC(C)CC1(O)CCN(C(=O)c2ccc(NS(=O)(=O)c3cccc4sc(N)nc34)cc2)CC1` [Compound 406, 2-amino-N-(4-(4-hydroxy-4-isobutylpiperidine-1-carbonyl)phenyl)benzo[d]thiazole-4-sulfonamide], the AC50 on PKR R510Q, on PKR R532W, on PKR WT [1] and at PKR WT [2] was under 100 nM throughout.

Consider `CC(C)(C)CC1(O)CCN(C(=O)c2ccc(NS(=O)(=O)c3cccc4scnc34)cc2)CC1` [Compound 134, N-(4-(4-hydroxy-4-neopentylpiperidine-1-carbonyl)phenyl)benzo[d]thiazole-4-sulfonamide], for which the AC50 on PKR R510Q, on PKR R532W, at PKR WT [1] and at PKR WT [2] was under 100 nM throughout.

As for `CC(F)(F)CCC1(O)CCN(C(=O)c2ccc(NS(=O)(=O)c3cc(F)cc4sc(N)nc34)cc2)CC1` [Compound 435], the AC50 was under 100 nM on PKR R510Q, under 100 nM at PKR R532W, under 100 nM at PKR WT [1] and 101 to 1000 nM at PKR WT [2].

Take `CCOC(=O)C1(CC(C)C)CCN(C(=O)c2ccc(NS(=O)(=O)c3cccc4cccnc34)cc2)CC1` [Compound 250, Ethyl 4-isobutyl-1-(4-(quinoline-8-sulfonamido)benzoyl)piperidine-4-carboxylate]: the AC50 lay within 1010 to 10000 nM on PKR R510Q, 101 to 1000 nM at PKR R532W, 101 to 1000 nM at PKR WT [1] and 1010 to 10000 nM at PKR WT [2].

As for `O=C(c1ccc(NS(=O)(=O)c2cccc3scnc23)cc1)N1CCC(O)(c2ccccc2C(F)F)CC1` [Compound 215, N-(4-(4-(2-(difluoromethyl)phenyl)-4-hydroxypiperidine-1-carbonyl)phenyl)benzo[d]thiazole-4-sulfonamide], the AC50 is 101 to 1000 nM on PKR R510Q, under 100 nM on PKR R532W, under 100 nM at PKR WT [1] and 101 to 1000 nM on PKR WT [2].

Take `Cc1cc(F)ccc1C1(O)CCN(C(=O)c2ccc(NS(=O)(=O)c3cccc4cccnc34)cc2)CC1` [Compound 138, N-(4-(4-(4-fluoro-2-methylphenyl)-4-hydroxypiperidine-1-carbonyl)phenyl)quinoline-8-sulfonamide]: the AC50 at PKR R510Q, at PKR R532W, on PKR WT [1] and on PKR WT [2] was under 100 nM in each case.

On to `CC(C)CC1(O)CCN(C(=O)c2ccc(NS(=O)(=O)c3cccc4nccnc34)cc2)CC1` [Compound 160, N-(4-(4-hydroxy-4-isobutylpiperidine-1-carbonyl)phenyl)quinoxaline-5-sulfonamide], for which the AC50 on PKR R510Q, at PKR R532W, on PKR WT [1] and on PKR WT [2] was under 100 nM in each case.

Regarding `O=C(c1ccc(NS(=O)(=O)c2cccc3cccnc23)cc1)N1CCC(O)(c2ccncc2)CC1` [Compound 206, N-(4-(4-hydroxy-4-(pyridin-4-yl)piperidine-1-carbonyl)phenyl)quinoline-8-sulfonamide], the AC50 at PKR R510Q was 1010 to 10000 nM; on PKR R532W, under 100 nM; at PKR WT [1], under 100 nM; on PKR WT [2], under 100 nM.

In the case of `CC(CC1(O)CCN(C(=O)c2ccc(NS(=O)(=O)c3cccc4scnc34)cc2)CC1)C(F)(F)F` (stereo not drawn) [Compound 391], the AC50 on PKR R510Q, at PKR R532W, at PKR WT [1] and at PKR WT [2] was under 100 nM in each case.

For the compound `COc1cc(NS(=O)(=O)c2cccc3cccnc23)ccc1C(=O)N1CCC(O)(c2ccccc2Cl)CC1` [Compound 170, N-(4-(4-(2-chlorophenyl)-4-hydroxypiperidine-1-carbonyl)-3-methoxyphenyl)quinoline-8-sulfonamide], the AC50 at PKR R510Q was 101 to 1000 nM; on PKR R532W, under 100 nM; at PKR WT [1], under 100 nM; on PKR WT [2], 101 to 1000 nM.

As for `Cc1cc(NS(=O)(=O)c2cccc3cccnc23)ccc1C(=O)N1CCC(O)(c2ccccc2Cl)CC1` [Compound 141, N-(4-(4-(2-chlorophenyl)-4-hydroxypiperidine-1-carbonyl)-3-methylphenyl)quinoline-8-sulfonamide], the AC50 at PKR R510Q was 101 to 1000 nM; on PKR R532W, under 100 nM; on PKR WT [1] it was under 100 nM; on PKR WT [2], under 100 nM.

For the compound `O=C(c1ccc(NS(=O)(=O)c2cccc3scnc23)cc1)N1CCC(O)(Cc2ccccc2C(F)(F)F)CC1` [Compound 125], the AC50 on PKR R510Q, at PKR R532W, on PKR WT [1] and on PKR WT [2] was under 100 nM each time.

`Cn1cc(CC2(O)CCN(C(=O)c3ccc(NS(=O)(=O)c4cccc5scnc45)cc3)CC2)cn1` [Compound 434]: the AC50 on PKR R510Q is 101 to 1000 nM; at PKR R532W, under 100 nM; on PKR WT [1], 101 to 1000 nM; at PKR WT [2] it was 101 to 1000 nM.

For the compound `O=C(c1ccc(NS(=O)(=O)c2cccc3cccnc23)cc1)N1CCC(O)(c2cccc(C(F)(F)F)c2)CC1` [Compound 199, N-(4-(4-hydroxy-4-(3-(trifluoromethyl)phenyl)piperidine-1-carbonyl)phenyl)quinoline-8-sulfonamide], the half-maximal activity concentration (AC50) on PKR R510Q is 101 to 1000 nM; on PKR R532W, under 100 nM; at PKR WT [1], under 100 nM; on PKR WT [2] it was under 100 nM.

As to `Cc1cccnc1C1(O)CCN(C(=O)c2ccc(NS(=O)(=O)c3cccc4cccnc34)cc2)CC1` [Compound 153, N-(4-(4-hydroxy-4-(3-methylpyridin-2-yl)piperidine-1-carbonyl)phenyl)quinoline-8-sulfonamide], the AC50 was 101 to 1000 nM at PKR R510Q, under 100 nM at PKR R532W, under 100 nM at PKR WT [1] and under 100 nM on PKR WT [2].

Turning to `O=C(c1ccc(NS(=O)(=O)c2cccc3cccnc23)cc1)N1CCC(O)(c2ccccc2C(F)F)CC1` [Compound 113, N-[4-[4-[2-(difluoromethyl)phenyl]-4-hydroxy-piperidine-1-carbonyl]phenyl]quinoline-8-sulfonamide], the AC50 at PKR R510Q, on PKR R532W, at PKR WT [1] and on PKR WT [2] was under 100 nM each time.

For `COc1ccccc1C1(O)CCN(C(=O)c2ccc(NS(=O)(=O)c3cccc4cccnc34)cc2)CC1` [Compound 184, N-(4-(4-hydroxy-4-(2-methoxyphenyl)piperidine-1-carbonyl)phenyl)quinoline-8-sulfonamide], the AC50 was 101 to 1000 nM at PKR R510Q, under 100 nM at PKR R532W, under 100 nM at PKR WT [1] and 101 to 1000 nM at PKR WT [2].

As for `CC(C)(C)CC1(O)CCN(C(=O)c2ccc(NS(=O)(=O)c3ccc(F)c4cccnc34)cc2)CC1` [Compound 187, 5-fluoro-N-(4-(4-hydroxy-4-neopentylpiperidine-1-carbonyl)phenyl)quinoline-8-sulfonamide], the AC50 at PKR R510Q, at PKR R532W, at PKR WT [1] and on PKR WT [2] was under 100 nM throughout.

As for `Cc1ccc(C2(O)CCN(C(=O)c3ccc(NS(=O)(=O)c4cccc5cccnc45)cc3)CC2)c(Cl)c1` [Compound 190, N-[4-[4-(2-chloro-4-methyl-phenyl)-4-hydroxy-piperidine-1-carbonyl]phenyl]quinoline-8-sulfonamide], the AC50 at PKR R510Q is 101 to 1000 nM; on PKR R532W, under 100 nM; at PKR WT [1], under 100 nM; at PKR WT [2] it was 101 to 1000 nM.

For `CNc1nc2c(S(=O)(=O)Nc3ccc(C(=O)N4CCC(O)(CC(C)C)CC4)cc3)cc(Cl)cc2s1` [Compound 385, 6-chloro-N-(4-(4-hydroxy-4-isobutylpiperidine-1-carbonyl)phenyl)-2-(methylamino)benzo[d]thiazole-4-sulfonamide], the AC50 at PKR R510Q, at PKR R532W, at PKR WT [1] and at PKR WT [2] was under 100 nM each time.

In general, AC50 refers to the midpoint of the concentration-response curve, whichever way the signal moves. A low value points to activity at low concentration.
